In one assay the test system is SARC-A2-MELOE-1 cells. The assay can be described thus: Anti-tumor vaccination with aSLP. In kind it is in vivo, A2/DR1 mice. As to conditions: day 36, threshold 50 mm^2; prime 100 μg day 6 plus adjuvant, boost 14 days later; 0/7 in untreated, p=0.0513. Here is the method: The SARC-L1 cell line which spontaneously occurred in A2/DR1 mice was genetically modified to over-express HLA-A*0201 as previously described (Rangan et al Oncotarget, 2017). SARC-A2 cells were then transduced with a gammaretroviral dicistronic vector encoding the whole MELOE-1 antigen and, downstream of an IRES element, a puromycin N-acetyltransferase allowing selection of the transduced cells with puromycin (5 μg/mL). HLA-A*0201 expression was checked by flow cytometry. The capacity of the MELOE-1-transduced SARC-A2 (SARC-A2-MELOE-1) cells to present the A2-restricted MELOE-1 epitope was confirmed by their recognition by an HLA-A*0201-restricted T cell clone (data not shown).
A2/DR1 mice were subcutaneously injected with 2×10^5 SARC-A2-MELOE-1 cells in 100 μl in the right flank. The first vaccination with aSLP (100 μg in IFA, as above) or adjuvant alone or PBS started when tumor became detectable (around 10 mm2). […] Tumor growth was evaluated twice a week using a caliper and mice were euthanized when their tumor exceeded 300 mm^2. The efficiency of anti-tumor vaccination was evaluated by Fisher's exact test (α=0.5%).
To evaluate the anti-tumor potential of vaccination with aSLP, we used the previously described SARC-A2 cell line transduced with a cDNA encoding the whole MELOE-1 antigen. […] Mice were monitored until the end point at day 36. […]

Assay [1] deals with CD8+ splenocytes restimulated with MELOE-136-44. In words: Immunization of transgenic mice with SLP, CD8 ELISpot-IFN-g. In kind it is in vivo, HLA-DRB1*0101/HLA-A*0201 transgenic mice. The conditions noted are these: INFg-ELIspot; positive if spots more than twice background and above ten; s.c. 100 μg prime, 50 μg boosts, IFA + polyI:C; FIG. 7A/B. Here is the method:
CD8+ splenocytes from immunized mice were tested by INFg-ELIspot following restimulation with the short epitope MELOE-136-44. Mice were considered positive if the number of spots after restimulation were more than twice the background level and above ten spots.
HLA-DRB1*0101/HLA-A*0201 transgenic mice (A2/DR1 mice) were used to evaluate immunogenicity of peptides. Group of 5 female A2/DR1 mice (6 to 10 weeks) were immunized subcutaneously with 100 μg of each peptides emulsified in incomplete Freund adjuvant (v/v) plus 50 μg of polyI:C. At day 14 and day 28 boost vaccinations were performed with 50 μg of each peptide along with the same adjuvants. All experiments were carried out according to the good laboratory practices defined by the animal experimentation Rules in France.
Specific immune responses were evaluated 10 days after the last boost by ELISpot-IFN-g (Diaclone, France). Briefly, freshly isolated splenocytes or CD8 positive T cells from spleen (CD8+ T Cell Isolation Kit, Miltenyi Biotec) were incubated (2.105 cells per well) during 15-20 hours in ELISpot plate in the presence of the class I MELOE-1 epitope (5 μg/ml final) or medium (X-vivo, as negative control) or PMA-ionomycin (positive control). Ex vivo CD4 T cell responses were evaluated on the CD8 negative fraction as above with the HLA-DRB1*0101-restricted epitope MELOE-113-27. […] Spot-forming cells were counted using the «C.T.L. Immunospot» system (Cellular Technology Ltd). Results were considered positive when the ELISPOT counts were >10 spots and above 2× the background (medium). (Dosset et al Clin Cancer Res, 2012)
Finally, we explored the immunogenicity of our SLP in vivo in HLA-DRB1*0101/HLA-A*0201 transgenic mice. Mice were immunized subcutaneously with 100 μg of SLP in IFA and poly I:C and boosted at D14 and D28 with 50 μg of SLP with the same adjuvants (see M&M). We focused on cross-presentation and thus assessed CD8 T cell responses by ELISpot-IFN-g after re-stimulation with the short MELOE-1136-44 epitope (SEQ ID NO:31) or with medium alone. A mouse was considered responder when ELIspots were above 10 and at least twice about background. A typical experiment is presented in FIG. 7 comparing immunization with SLP containing MELOE-113-27 (SEQ ID NO:21) and MELOE-136-44 (SEQ ID NO:31) with linker GGGG (SEQ ID NO:160) or LLSVGG (SEQ ID NO:9). Immunization with SLP containing GGGG (SEQ ID NO:160) generated moderate CD8 responses in 3 out of five mice while immunization with SLP with LLSVGG (SEQ ID NO:9) was efficient in all 5 mice with two mice showing robust CD8 responses. Previous experiments performed with the shorter linkers LLSV (SEQ ID NO:4) or LLSVG (SEQ ID NO:8) also supported the hypothesis that our synthetic linkers favored cross-presentation when compared to either the linker GGGG or the native sequence (Table 4). In contrast, CD4 responses evaluated ex vivo towards the HLA-DRB1*0101 epitope were very low (FIG. 7C).

The subject of assay [2] is MELOE-1, HLA A*0201 restricted CD8 T cell clone.

With “TSREQFLPSEGAACPPWLLSVGGTLNDECWPASL (Synthetic SLP) [SEQ ID NO: 87]”, the “mice in which tumor growth was inhibited” value in the assay on SARC-A2-MELOE-1 cells is 4/8. Also, the “CD8 responses, positive mice, Exp#3” value in assay [1] is recorded as 5/5. Moreover, the “Fold change = EC50 (M) of MELOE-111-46/EC50 (M) SLP” value in assay [2] (SLP MELOE-113-27 xxxx MELOE-136-44, TNF-a response of CD8 T cell clone to SLP-loaded DC, range over independent experiments) was 12-56. Also, the “cross-presentation compared with full length MELOE-1 / native antigen (in words)” value in assay [2] (full length MELOE-1 as reference) is “the most efficiently processed and cross-presented”.

The record behind these values is patent US12144851B2, “Vaccinal strategy” (INSERM (INSTITUT NATIONAL DE LA SANTÉ ET DE LA RECHERCHE …, priority 2018, dated 2024).
